Experiments:
[1] = molecular target: Tubulin; assay: Inhibition of tubulin polymerization (unknown origin); format: protein-complex assay, Homo sapiens
[2] = molecular target: Tubulin (Homo sapiens) (UniProt P68371+Q9H4B7+P0DPH7+P68366+Q13509+Q71U36+P04350+Q3ZCM7+P07437+P68363+Q9BQE3+Q6PEY2+Q13885+Q9BVA1+Q9BUF5); assay: Displacement of [3H]colchicine from tubulin (unknown origin) at 5 uM; format: protein-complex assay
[3] = tested on: A549; assay: Cytotoxicity against human A549 cells; format: functional, cell-based

IC50 [1] | inhibition [2] | Structure (SMILES) | IC50 [3]
2 µM | 56% | COC(=O)Nc1nc2ccc(C(=O)c3sccc3O)cc2[nH]1 | 6 µM
2.2 µM | 38% | COC(=O)Nc1nc2ccc(C(=O)c3ccc(OC)cc3O)cc2[nH]1 | > 100 µM
> 20 µM | – | COC(=O)Nc1nc2ccc(C(=O)c3ccc(O)cc3O)cc2[nH]1 | > 100 µM

Structure (SMILES) | IC50 [1] | inhibition [2] | IC50 [3]
COC(=O)Nc1nc2ccc(/C=C\c3cc(OC)c(OC)c(OC)c3)cc2[nH]1 | 1.6 µM | 39% | 12 µM

Reference: ChEMBL document CHEMBL3400129, “Novel hybrid nocodazole analogues as tubulin polymerization inhibitors and their antiproliferative activity” (Bioorg Med Chem Lett, 2015)
